Key:
A. flavus ATCC 204304 = test: Broth microdilution antifungal susceptibility, NCCLS M38-A; type: cell-based, Aspergillus flavus; conditions: minimal concentration inhibiting >95% growth; average of at least two assays (except I-l and I-x)
A. fumigatus ATCC 204305 = test: as above; type: cell-based, Aspergillus fumigatus; conditions: minimal concentration inhibiting >95% growth; average of at least two assays (except I-l and I-x)

| Molecule | MIC0 A. flavus ATCC 204304 (A. flavus ATCC 204304) | MIC0 A. fumigatus ATCC 204305 (A. fumigatus ATCC 204305) |
| --- | --- | --- |
| CC[C@H]1O[C@@H](/C(C)=C/[C@H](C)/C=C/[C@H]2[C@@H](C)[C@@H]2/C=C/[C@@H]2O[C@H](CC(=O)O)C[C@H](NC(=O)NCc3ccccc3)[C@H]2O)CC=C1C [I-s, (5S,6R)-5-(3-benzylureido)-6-hydroxypolyangioic acid] | 32 µg/mL | 16 µg/mL |
| CC[C@H]1O[C@@H](/C(C)=C/[C@H](C)/C=C/[C@H]2[C@@H](C)[C@@H]2/C=C/[C@@H]2O[C@H](CC(=O)O)C[C@H](N(C)Cc3ccc4ccccc4c3)[C@H]2O)CC=C1C [I-f, (5S,6R)-5-(N-(2-naphthyl)methyl-methylamino)-6-hydroxypolyangioic acid] | 4.67 µg/mL | 8.0 µg/mL |
| CCC(=O)N(C)[C@H]1C[C@@H](CC(=O)O)O[C@@H](/C=C/[C@H]2[C@H](C)[C@@H]2/C=C/[C@@H](C)/C=C(\C)[C@H]2CC=C(C)[C@@H](CC)O2)[C@@H]1O [I-m, (5S,6R)-5-[N-methyl(propionamido)]-6-hydroxypolyangioic acid] | >32 µg/mL | >32 µg/mL |
| (5S,6R,16S,17S)-5-amino-6-hydroxy-16,17-epxoy-16,17-dihydropolyangioic acid [V-d] | >32 µg/mL | >32 µg/mL |
| CC[C@H]1O[C@@H](/C(C)=C/[C@H](C)/C=C/[C@H]2[C@@H](C)[C@@H]2/C=C/[C@@H]2O[C@H](CC(=O)O)C[C@H](NC(=O)OC)[C@H]2O)CC=C1C [I-bb, (5S,6R)-5-methoxycarbonylamino-6-hydroxypolyangioic acid] | 32 µg/mL | 16 µg/mL |
| CC[C@H]1O[C@@H](/C(C)=C/[C@H](C)/C=C/[C@H]2[C@@H](C)[C@@H]2/C=C/[C@@H]2O[C@H](CC(=O)O)C[C@H](NCC(F)F)[C@H]2O)CC=C1C [I-ggg, (5S,6R)-5-(2,2-difluoroethyl)amino-6-hydroxypolyangioic acid] | 8 µg/mL | 4 µg/mL |
| CC[C@H]1O[C@@H](/C(C)=C/[C@H](C)/C=C/[C@H]2[C@@H](C)[C@@H]2/C=C/[C@@H]2O[C@H](CC(=O)NCCO)C[C@H](N(C)C)[C@H]2O)CC=C1C [I-rr, (5S,6R)-5-dimethylamino-6-hydroxy-N-(2-hydroxyethyl)polyangiamide] | 2 µg/mL | 4 µg/mL |
| CC[C@H]1O[C@@H](/C(C)=C/[C@H](C)/C=C/[C@H]2[C@@H](C)[C@@H]2/C=C/[C@@H]2O[C@H](CC(=O)O)C[C@H](NCc3ccc(OC)c(OC)c3)[C@H]2O)CC=C1C [I-hhh, (5S,6R)-5-(3,4-dimethoxybenzyl)amino-6-hydroxypolyangioic acid] | >32 µg/mL | >32 µg/mL |
| CC[C@H]1O[C@@H](/C(C)=C/[C@H](C)/C=C/[C@H]2[C@@H](C)[C@@H]2/C=C/[C@@H]2O[C@H](CCO)C[C@H](NCC(F)F)[C@H]2O)CC=C1C [I-jjj, (5S,6R)-5-(2,2-difluroethyl)aminopolyangi-1,6-diol] | 8 µg/mL | 8 µg/mL |
| 20,21-dihydro ambruticin VS4 [IV-e] | 1 µg/mL | 2.5 µg/mL |
| CC[C@H]1O[C@@H](/C(C)=C/[C@H](C)/C=C/[C@H]2[C@@H](C)[C@@H]2/C=C/[C@@H]2O[C@H](CC(=O)OC)C[C@H](N(C)C(=O)OCC(C)C)[C@H]2O)CC=C1C [I-gg] | >32 µg/mL | >32 µg/mL |
| CC[C@H]1O[C@@H](/C(C)=C/[C@H](C)/C=C/[C@H]2[C@@H](C)[C@@H]2/C=C/[C@@H]2O[C@H](CC(=O)O)C[C@H](N(C)C)[C@H]2O)CC=C1C [Ambruticin VS-3, (5S,6R)-5-(dimethylamino)-6-hydroxypolyangioic acid, reference compound] | 0.64 µg/mL | 0.44 µg/mL |
| CC[C@H]1O[C@@H](/C(C)=C/[C@H](C)/C=C/[C@H]2[C@@H](C)[C@@H]2/C=C/[C@@H]2O[C@H](CC(=O)N(C)OC)C[C@H](N(C)C)[C@H]2O)CC=C1C [I-tt, (5S,6R)-5-dimethylamino-6-hydroxy-N-methoxy-N-methylpolyangiamide] | 4 µg/mL | 8 µg/mL |
| CC[C@H]1O[C@@H](/C(C)=C/[C@H](C)/C=C/[C@H]2[C@@H](C)[C@@H]2/C=C/[C@@H]2O[C@H](CC(=O)O)C[C@H](N(CC3CC3)CC3CC3)[C@H]2O)CC=C1C [I-e, (5S,6R)-5-[di(cyclopropylmethyl)amino]-6-hydroxypolyangioic acid] | 3.33 µg/mL | 4.0 µg/mL |
| CC[C@H]1O[C@@H](/C(C)=C/[C@H](C)/C=C/[C@H]2[C@@H](C)[C@@H]2/C=C/[C@@H]2O[C@H](CC(=O)O)C[C@H](NC(C)C)[C@H]2O)CCC1C (stereo partly drawn) [IV-d] | 0.88 µg/mL | 2.5 µg/mL |
| CC[C@H]1O[C@@H](/C(C)=C/[C@H](C)/C=C/[C@H]2[C@@H](C)[C@@H]2/C=C/[C@@H]2O[C@H](CC(=O)O)C[C@H](N(Cc3c[nH]cn3)Cc3c[nH]cn3)[C@H]2O)CC=C1C [I-g, (5S,6R)-5-{di [(4-imidazolyl)methyl]amino}-6-hydroxypolyangioic acid] | 24.0 µg/mL | 22.67 µg/mL |
| CC[C@H]1O[C@@H](/C(C)=C/[C@H](C)/C=C/[C@H]2[C@@H](C)[C@@H]2/C=C/[C@@H]2O[C@H](CC=NO)C[C@H](NC)[C@H]2O)CC=C1C [I-zz, (5S,6R)-5-methylamino-6-hydroxypolyangial oxime] | 8 µg/mL | 12 µg/mL |
| CC[C@H]1O[C@@H](/C(C)=C/[C@H](C)/C=C/[C@H]2[C@@H](C)[C@@H]2/C=C/[C@@H]2O[C@H](CC(=O)O)C[C@H](N(C)C(=O)NCc3ccccc3)[C@H]2OC(=O)NCc2ccccc2)CC=C1C [I-dd, (5S,6R)-5-(3-benzyl-1-methylureido)-6-(benzylcarbamoyl)polyangioic acid] | >32 µg/mL | >32 µg/mL |
| CC[C@H]1O[C@@H](/C(C)=C/C/C=C/[C@H]2[C@@H](C)[C@@H]2/C=C/[C@@H]2O[C@H](CC(=O)O)C[C@H](N(C)C)[C@H]2O)CC=C1C [II-a, (5S,6R)-5-dimethylamino-6-hydroxy-15-desmethylpolyangioic acid] | 0.92 µg/mL | 0.6 µg/mL |
| C=CCNC(=O)O[C@H]1[C@H](/C=C/[C@H]2[C@H](C)[C@@H]2/C=C/[C@@H](C)/C=C(\C)[C@H]2CC=C(C)[C@@H](CC)O2)O[C@H](CC(=O)O)C[C@@H]1N(C)C(=O)NCC=C [I-cc, (5S,6R)-5-(3-allyl-1-methylureido)-6-(allylcarbamoyl)polyangioic acid] | >32 µg/mL | >32 µg/mL |
| CC[C@H]1O[C@@H](/C(C)=C/[C@H](C)/C=C/[C@H]2[C@@H](C)[C@@H]2/C=C/[C@@H]2O[C@H](CC(=O)NCC(=O)OC)C[C@H](N(C)C)[C@H]2O)CC=C1C [I-ss, (5S,6R)-5-dimethylamino-6-hydroxy-N-(methoxycarbonylmethyl)polyangiamide] | 8 µg/mL | 4 µg/mL |
| methyl (5S,6R,16S,17S)-5-tert-butoxycarbonylamino-6-hydroxy-16,17-epxoy-16,17-dihydropolyangiate [V-b] | >32 µg/mL | >32 µg/mL |
| CC[C@H]1O[C@@H](/C(C)=C/[C@H](C)/C=C/[C@H]2[C@@H](C)[C@@H]2/C=C/[C@@H]2O[C@H](CC(=O)O)C[C@H](N(C)C(=O)OCC(C)C)[C@H]2O)CC=C1C [I-r, (5S,6R)-5-[N-methyl(isobutoxycarbonylamino)]-6-hydroxypolyangioic acid] | >32 µg/mL | >32 µg/mL |
| CC[C@H]1O[C@@H](/C(C)=C/[C@H](C)/C=C/[C@H]2[C@@H](C)[C@@H]2/C=C/[C@@H]2O[C@H](CC(=O)NCCN(C)C)C[C@H](N(C)C)[C@H]2O)CC=C1C [I-qq, (5S,6R)-5-dimethylamino-6-hydroxy-N-[(2-dimethylamino)ethyl]polyangiamide] | >32 µg/mL | 32 µg/mL |
| CC[C@H]1O[C@@H](/C(C)=C/[C@H](C)/C=C/[C@H]2[C@@H](C)[C@@H]2/C=C/[C@@H]2O[C@H](CC(=O)OC)C[C@H](N(C)C(C)=O)[C@H]2O)CC=C1C [I-k, methyl (5S,6R)-5-[N-methyl(acetamido)]-6-hydroxypolyangioate] | >32 µg/mL | >32 µg/mL |
| CC[C@H]1O[C@@H](/C(C)=C/[C@H](C)/C=C/[C@H]2[C@@H](C)[C@@H]2/C=C/[C@@H]2O[C@H](CC(=O)O)C[C@H](N(C)C(=O)NCc3ccccc3)[C@H]2O)CC=C1C [I-p, (5S,6R)-5-(3-benzyl-1-methylureido)-6-hydroxypolyangioic acid] | 32 µg/mL | 32 µg/mL |
| CC1=CC[C@H](/C(C)=C/[C@H](C)/C=C/[C@H]2[C@@H](C)[C@@H]2/C=C/[C@@H]2O[C@H](CC(=O)O)C[C@H](N(C)C)[C@H]2O)O[C@@H]1C [III-a, 24-norambruticin VS-3] | 1.6 µg/mL | 0.71 µg/mL |
| CC[C@H]1O[C@@H](/C(C)=C/C/C=C/[C@H]2[C@@H](C)[C@@H]2/C=C/[C@@H]2O[C@H](CCO)C[C@H](N(C)C)[C@H]2O)CC=C1C [II-b, (5S,6R)-5-dimethylamino-15-desmethylpolyangi-1,6-diol] | 8 µg/mL | 8 µg/mL |
| CC[C@H]1O[C@@H](/C(C)=C/[C@H](C)/C=C/[C@H]2[C@@H](C)[C@@H]2/C=C/[C@@H]2O[C@H](CCO)C[C@H](N(C)C)[C@H]2O)CCC1C (stereo partly drawn) [IV-c] | 2 µg/mL | 2 µg/mL |
| methyl (5S,6R,16R,17R)-5-tert-butoxycarbonylamino-6-hydroxy-16,17-epxoy-16,17-dihydropolyangiate [V-a] | >32 µg/mL | >32 µg/mL |

From patent US20070015823A1, “Ambruticin VS compounds” (priority 2004, published 2007)
